Experiments:
Assay type in all cases: cell-based
F508del CFTR [1] = biological target: T1, F508del CFTR (Homo sapiens, UniProt P13569, DEL508-508); experiment: YFP halide assay, CFBe41o- cells, low temperature rescued F508del CFTR; settings: 27°C 24 h, 10 μM forskolin, read-out: EC50, potentiation of low temperature rescued F508del CFTR
Experimental: CFBe41o- cells were plated in black 384-well microplates at a density of 1,500 cells per well. After 24 h, cells were transduced with adenoviruses containing F508del CFTR and YFP (H148Q/I152L/) F47L using a multiplicity of infection of 30 infectious units per cell for each adenovirus. The next day, for the low temperature corrected assay, cells were incubated at 27°C for 24 h, for the chemically corrected assay cells were treated with corrector for 24 h at 37°C. On the day of analysis, cells were washed five times with Dulbecco’s Phosphate-Buffered Saline (DPBS) containing Ca^2+ and Mg^2+ (Life Technologies) using a Microplate Washer (BioTek). Then, cells were treated with 10 μM forskolin and the desired concentration of potentiator in a volume of 30 μl and the plates were incubated at room temperature for 10 min, a timepoint optimized in previous experiments showing good window (positive control/negative control > 2) and signal to background ratio. The YFP fluorescence was recorded for 2 min, starting immediately before addition of 30 μl NaI buffer (375 mM NaI, 7.5 mM KI, 1.76 mM KH2PO4, 10.1 mM Na2HPO4, 13.75 mM glucose) to the wells, using a FDSS/μCell (Hamamatsu) fluorescence reader with a 480 nm excitation filter and a 540 nm emission filter. The capacity of potentiators to increase CFTR channel function was expressed as 1-[fluorescence 36 s after NaI addition (F)/fluorescence before NaI addition (F0)], a timepoint optimized previously, resulting in an optimal signal window. Data was normalized using the formula: normalized response = 100^∗ (absolute response – negative control response)/(VX770 response – negative response) as such, VX770 response corresponds to 100. For Dose-response experiments, data was fitted using a 4 parameter hill function of the form Response = Bottom + (Top-Bottom)/(1 + 10ˆ((LogEC50-concentration)^∗HillSlope)) to determine EC50 values.

G178R CFTR = biological target: T2, G178R CFTR (Homo sapiens, UniProt P13569, G178R); experiment: YFP halide assay, HEK293 cells expressing G178R CFTR; settings: 10 μM forskolin, VX770 = 100
T2 construct: expressed in transfected cells; host or cells: HEK293, transient (jetPEI)
Experimental: HEK293 cells were transfected with 10–80 ng of plasmid encoding G551D, G178R, G1349D, S549N, R117H, R334W, or wild type CFTR and 20 ng of plasmid encoding YFP (H148Q/I152L/F47L) using jetPEI (Polyplus transfection). Directly after transfection, cells were seeded in black 96-well plates coated with Poly-D-lysine at a density of 70,000 cells per well. The next day, cells were incubated at 27°C for 24 h, for low temperature correction. When evaluating in a chronic setting, the potentiator concentration range was also added to the cells for 24 h. After this incubation period, cells were washed twice with DPBS with Ca^2+ and Mg^2+. Subsequently, cells were treated with 10 μM forskolin and the desired concentration of potentiator in a volume of 40 μl and incubated at room temperature for 10 min, a timepoint optimized in previous experiments resulting in a good window (positive control/negative control > 2) and signal to background ratio. YFP fluorescence was measured using an EnVision plate reader (PerkinElmer). […] The excitation wavelength was 485 nm and the emission wavelength 530 nm. The capacity of potentiators to increase CFTR channel function was expressed as 1-[fluorescence 7 s after NaI addition (F)/fluorescence before NaI addition (F0)]. […]

F508del CFTR [2] = biological target: T1, F508del CFTR; experiment: Patch clamp, inside-out patches of CHO cells expressing F508del CFTR; parameters: expressed in transfected cells; host or cells: CHO cells, transient, pcDNA plasmid
Experimental: A more complete description of the patch-clamp methodology can be found in a recent publication ([Lin et al., 2016]). Briefly, CHO (Chinese Hamster Ovary) cells were transiently transfected with pcDNA plasmids containing various CFTR constructs and pEGFP-C3. After transfection, cells were trypsinized and plated onto 35 mm tissue culture dishes dispersed with sterilized glass chips. Electrophysiological experiments were performed 3–7 days following transfection.
Patch-clamp experiments were performed at room temperature with an EPC-9 patch clamp amplifier (HEKA Instruments, Holliston, MA, United States). Recording microelectrodes were made from borosilicate capillary glass with a two-stage pipette puller (Narishige, Tokyo, Japan). The pipette tip was polished with a home-made microforge before use. The pipette solution contained (in mM) 140 NMDG (N-methyl-d-glucamine)-Cl (Fisher Biotec), 2 MgCl2 (Fisher Biotec, Perth, Australia), 5 CaCl2 (Fisher Biotec), and 10 HEPES (Fisher Biotec), pH 7.4, with NMDG (see [Lin et al., 2016] for details). The pipette resistance when filled with the regular pipette solution was 3–5 MΩ. Once the tip of the pipette and the cell membrane established GΩ resistance, the electrode was quickly pulled away from the cell to form an inside-out patch, where the cytosolic side of the membrane was exposed to the perfusion solution. Cells were perfused with a bath solution having (in mM) 145 NaCl (Fisher Biotec), 5 KCl (Fisher Biotec), 2 MgCl2, 1 CaCl2, 5 glucose (Fisher Biotec), 5 HEPES, and 20 sucrose (Fisher Biotec), pH 7.4, with NaOH (Fisher Biotec). After establishing an inside-out configuration, the patch was perfused with a standard perfusion solution (i.e., intracellular solution) containing (in mM) 150 NMDG-Cl, 2 MgCl2, 10 EGTA (Fisher Biotec), and 8 Tris (Fisher Biotec), pH 7.4, with NMDG (see [Lin et al., 2016] for details) containing the catalytic subunit of protein kinase A (PKA) and 2 mM ATP. Once the phosphorylation-dependent activation of CFTR reached a plateau, 3 μM GLPG1837 or 10 μM GLPG2451 was applied in the continuous presence of 2 mM ATP until a steady state was attained.
Microscopic kinetic analysis was performed with a program provided by Dr. László Csanády (Semmelweis University, Budapest, Hungary) ([Csanády, 2000]). Experiments were performed 4-5 times and averages and SEM were calculated. The resulting Po values and single-channel kinetic parameters were compared with paired t-test (Excel, Microsoft); P < 0.05 is considered statistically significant.

T1 sequence (P13569 with tags, fused parts or gaps DEL508-508): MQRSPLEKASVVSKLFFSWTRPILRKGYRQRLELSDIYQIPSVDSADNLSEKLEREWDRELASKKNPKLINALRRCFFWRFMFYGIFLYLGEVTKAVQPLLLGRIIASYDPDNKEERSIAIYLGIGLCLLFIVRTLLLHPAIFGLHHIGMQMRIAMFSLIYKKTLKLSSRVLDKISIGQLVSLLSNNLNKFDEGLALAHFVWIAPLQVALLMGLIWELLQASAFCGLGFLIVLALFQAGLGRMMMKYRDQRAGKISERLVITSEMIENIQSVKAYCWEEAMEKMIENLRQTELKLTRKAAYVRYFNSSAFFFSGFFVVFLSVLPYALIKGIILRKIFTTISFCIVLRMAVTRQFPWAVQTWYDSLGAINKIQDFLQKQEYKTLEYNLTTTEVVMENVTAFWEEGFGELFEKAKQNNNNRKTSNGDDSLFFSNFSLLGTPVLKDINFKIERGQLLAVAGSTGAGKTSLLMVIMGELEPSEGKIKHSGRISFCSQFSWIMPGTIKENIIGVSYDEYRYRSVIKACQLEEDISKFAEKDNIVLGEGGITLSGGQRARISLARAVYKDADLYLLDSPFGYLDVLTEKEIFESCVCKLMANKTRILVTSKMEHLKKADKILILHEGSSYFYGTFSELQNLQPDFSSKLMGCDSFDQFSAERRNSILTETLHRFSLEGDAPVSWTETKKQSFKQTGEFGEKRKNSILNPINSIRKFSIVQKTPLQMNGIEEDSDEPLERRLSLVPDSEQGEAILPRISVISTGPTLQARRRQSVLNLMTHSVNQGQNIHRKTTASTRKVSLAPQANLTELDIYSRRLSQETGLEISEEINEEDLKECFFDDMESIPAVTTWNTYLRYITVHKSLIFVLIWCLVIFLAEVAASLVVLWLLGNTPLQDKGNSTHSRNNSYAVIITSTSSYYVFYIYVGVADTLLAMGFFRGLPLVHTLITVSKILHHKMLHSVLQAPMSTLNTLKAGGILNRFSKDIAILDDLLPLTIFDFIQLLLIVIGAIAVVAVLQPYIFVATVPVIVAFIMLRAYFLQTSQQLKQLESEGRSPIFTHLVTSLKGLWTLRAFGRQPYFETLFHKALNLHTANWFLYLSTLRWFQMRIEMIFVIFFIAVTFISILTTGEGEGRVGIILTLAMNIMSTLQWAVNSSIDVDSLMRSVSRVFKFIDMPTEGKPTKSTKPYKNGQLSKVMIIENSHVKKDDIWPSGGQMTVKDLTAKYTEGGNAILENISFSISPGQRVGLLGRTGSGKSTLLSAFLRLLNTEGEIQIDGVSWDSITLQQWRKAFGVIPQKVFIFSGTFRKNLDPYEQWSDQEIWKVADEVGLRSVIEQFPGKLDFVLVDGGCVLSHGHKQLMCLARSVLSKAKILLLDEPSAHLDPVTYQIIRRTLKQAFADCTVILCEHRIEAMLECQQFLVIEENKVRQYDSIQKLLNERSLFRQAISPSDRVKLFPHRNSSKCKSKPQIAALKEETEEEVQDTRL
T2 sequence (P13569 whole entry G178R): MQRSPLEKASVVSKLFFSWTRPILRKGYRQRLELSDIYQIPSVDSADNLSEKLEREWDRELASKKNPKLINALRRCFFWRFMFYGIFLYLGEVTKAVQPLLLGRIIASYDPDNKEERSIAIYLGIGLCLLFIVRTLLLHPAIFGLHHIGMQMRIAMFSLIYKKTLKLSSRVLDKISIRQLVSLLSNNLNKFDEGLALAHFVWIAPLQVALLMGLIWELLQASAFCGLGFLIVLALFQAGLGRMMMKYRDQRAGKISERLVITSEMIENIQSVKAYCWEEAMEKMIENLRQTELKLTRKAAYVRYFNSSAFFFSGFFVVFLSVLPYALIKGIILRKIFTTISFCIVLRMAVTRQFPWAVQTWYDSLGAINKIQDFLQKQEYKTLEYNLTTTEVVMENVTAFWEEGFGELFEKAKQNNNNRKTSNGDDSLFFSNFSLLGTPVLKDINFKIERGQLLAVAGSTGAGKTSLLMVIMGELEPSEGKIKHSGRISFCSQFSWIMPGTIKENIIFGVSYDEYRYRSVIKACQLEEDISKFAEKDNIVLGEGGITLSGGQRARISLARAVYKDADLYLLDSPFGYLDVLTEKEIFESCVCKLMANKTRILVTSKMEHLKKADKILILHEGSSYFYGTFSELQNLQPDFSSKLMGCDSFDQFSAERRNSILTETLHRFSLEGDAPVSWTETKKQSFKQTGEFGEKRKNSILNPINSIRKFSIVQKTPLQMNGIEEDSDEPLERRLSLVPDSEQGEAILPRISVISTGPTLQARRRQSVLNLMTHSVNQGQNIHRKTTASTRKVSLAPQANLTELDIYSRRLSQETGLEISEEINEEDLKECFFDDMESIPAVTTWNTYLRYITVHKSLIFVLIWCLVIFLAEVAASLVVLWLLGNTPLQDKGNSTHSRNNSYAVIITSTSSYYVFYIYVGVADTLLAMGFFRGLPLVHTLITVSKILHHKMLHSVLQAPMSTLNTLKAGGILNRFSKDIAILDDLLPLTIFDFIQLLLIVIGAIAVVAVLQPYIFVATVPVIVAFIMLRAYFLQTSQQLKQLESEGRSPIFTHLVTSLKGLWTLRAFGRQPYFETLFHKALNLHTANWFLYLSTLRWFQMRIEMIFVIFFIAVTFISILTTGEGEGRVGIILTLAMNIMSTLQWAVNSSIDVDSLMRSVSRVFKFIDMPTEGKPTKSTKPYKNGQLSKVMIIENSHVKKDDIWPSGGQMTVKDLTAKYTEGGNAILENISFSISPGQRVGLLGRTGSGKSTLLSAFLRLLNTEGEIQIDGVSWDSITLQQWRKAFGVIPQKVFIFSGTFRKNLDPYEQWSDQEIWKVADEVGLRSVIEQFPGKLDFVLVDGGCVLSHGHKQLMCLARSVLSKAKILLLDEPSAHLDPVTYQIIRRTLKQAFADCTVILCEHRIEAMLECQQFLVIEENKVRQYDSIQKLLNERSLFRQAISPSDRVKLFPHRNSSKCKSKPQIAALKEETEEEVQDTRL

Row | EC50 (F508del CFTR [1]) [nM] | Efficacy on G178R CFTR relative to VX770 (G178R CFTR) [%] | Closed time constant τc, F508del CFTR (F508del CFTR [2]; 3 μM GLPG1837) [s] | Open time constant τo, F508del CFTR (F508del CFTR [2]; 3 μM GLPG1837) [s] | Open probability Po, F508del CFTR (F508del CFTR [2]; 3 μM GLPG1837, pre-potentiator Po 0.04 ± 0.01) | Closed time constant τc, F508del CFTR (F508del CFTR [2]; 10 μM GLPG2451) [s] | Open time constant τo, F508del CFTR (F508del CFTR [2]; 10 μM GLPG2451) [s] | Open probability Po, F508del CFTR (F508del CFTR [2]; 10 μM GLPG2451, pre-potentiator Po 0.05 ± 0.01) | SMILES
1 | 3.5 ± 0.2 | 154 | 2.18 ± 0.52 | 3.29 ± 0.82 | 0.55 ± 0.05 | – | – | – | CC1(C)Cc2c(sc(NC(=O)c3ccn[nH]3)c2C(N)=O)C(C)(C)O1 [GLPG1837, N-(3-Carbamoyl-5,5,7,7-tetramethyl-5,7-dihydro-4H-thieno[2,3-c]pyran-2-yl)-lH-pyrazole-5-carboxamide]
2 | 11.1 ± 3.6 | 106 | – | – | – | 4.44 ± 2.23 | 5.05 ± 1.82 | 0.57 ± 0.05 | C[C@H](O)CNC(=O)c1ncc(S(=O)(=O)c2ccc(OC(F)(F)F)cc2)cc1N [GLPG2451]

Reference: PMC6212544, “Identification and Characterization of Novel CFTR Potentiators” (Frontiers in Pharmacology, 2018)
